# Assays:
# [1] = Insoluble matter test: sample mixed in deionized water at ambient temperature; format: physicochemical; settings: 55 mg sample in 0.5 mL deionized water
# Procedure: (§1) The subject invention also provides a process for making a pharmaceutical composition comprising laquinimod sodium comprising: • a) obtaining a batch of laquinimod sodium; • b) determining whether insoluble matter is present in the batch of step a) by mixing a sample from the batch in deionized water at room temperature at a ratio of at least 110 mg of sample to 1.0 ml of water, and inspecting the resulting mixture for the presence of insoluble matter; and • c) mixing the batch of step a) with at least one pharmaceutically acceptable carrier if in step b) insoluble matter is determined to be present below a predetermined amount.
# as §1, with “A” for “The subject invention also provides a”, “amount. […]” for “amount.”
# [2] = Particle size distribution by Malvern laser diffraction (Mastersizer S); format: physicochemical; settings: for Particle size distribution by Malvern, d(0.1): size below which 10% by volume of the population is found; for Particle size distribution by Malvern, d(0.5): size below which 50% by volume of the population is found; for Particle size distribution by Malvern, d(0.9): size below which 90% by volume of the population is found
# Procedure: The particle size distributions were measured by Malvern Laser Diffraction, using the Mastersizer S model. Laser diffraction relies on the fact that diffraction angle of light is inversely proportional to particle size. Properties of particles are measured and interpreted as measurements of a sphere (a sphere being the only shape that can be described by one unique number). In addition, laser diffraction calculates a particle size distribution based around volume terms, thus eliminating particle count from the determination of particle size. The Mastersizer S model measures particles using a single technique and a single range setting.
# D(0.1) is the particle size, in microns, below which 10% by volume distribution of the population is found. D(0.5) is the particle size, in microns, below which 50% by volume distribution of the population is found. D(0.9) is the particle size, in microns, below which 90% by volume distribution of the population is found.
# [3] = Determination of powder density (bulk density, tapped density); format: physicochemical; settings: for Powder density, TD (tapped density): 1250 taps; for Powder density, BD (bulk density): loose, uncompacted powder
# Procedure: As used herein, “bulk density” or “BD” refers to a density measurement of a loose, uncompacted substance, wherein the volume of the substance includes the air trapped between particles.
# As used herein, “tapped density” or “TD” refers to a density measurement of a substance that has been tapped or vibrated, thus minimizing the volume of the substance by eliminating or minimizing the air trapped between particles.
# Determination of Powder Density
# • 1. Mix powder; • 2. Tare a 50 ml empty cylinder on a 0.01 g sensitivity balance; • 3. Transfer the powder, without compacting, to the cylinder being held at approximately a 45 degree angle to achieve an untapped apparent volume of 40 to 50 ml. • 4. Bring the cylinder containing the sample to a vertical position by a sharp move in order to level the volume for reading. • 5. Read the apparent volume (Va) to the nearest graduated unit; • 6. Weigh the cylinder with sample (the balance gives sample weight M); • 7. Calculate bulk density in g/ml according to the following equation: BD=M/Va; • 8. Perform steps 1-7 again and report the average data of duplicates. Tapped Density • 1. Put the same cylinder used to calculate Bulk Density in a Quantachrome Dual Autotap instrument; • 2. Perform 1250 taps; • 3. Read the tapped volume (Vf) to the nearest graduated unit; • 4. Calculate the tapped density in g/ml according to the following equation: TD=M/Vf; • 5. Perform steps 1-4 again and report the average data of duplicates. Determination of Particle Size
# [4] = tested on: acute experimental autoimmune encephalomyelitis (aEAE) model; settings: U.S. Pat. No. 6,077,851; cited from earlier work
# [5] = Solubility of laquinimod sodium in anti-solvents at room temperature (USP XXV terms); format: physicochemical; settings: room temperature (20-25° C.)
# Text: The solubility terms are defined below, in accordance with the United States Pharmacopoeia XXV. [table]
# [6] = listed as Laguinimod Sodium according to Example 1 (batch B)
Structure (SMILES),"Particle size distribution by Malvern, d(0.1) [2] [micron]","Particle size distribution by Malvern, d(0.5) [2] [micron]","Particle size distribution by Malvern, d(0.9) [2] [micron]","Powder density, TD (tapped density) [3] [g/ml]","Powder density, BD (bulk density) [3] [g/ml]",other results
CCN(C(=O)c1c([O-])c2c(Cl)cccc2n(C)c1=O)c1ccccc1.[Na+],,,,,,Dissolution in deionized water [1]: did not completely dissolve
CCN(C(=O)c1c([O-])c2c(Cl)cccc2n(C)c1=O)c1ccccc1.[Na+] [Laquinimod Sodium prepared according to Example 1 (batch B)],2.1,10.8,35.3,0.452,0.189,"Particle size distribution by Malvern, d(0.1) [2, 6]: 2.1 micron; Particle size distribution by Malvern, d(0.5) [2, 6]: 10.8 micron; Particle size distribution by Malvern, d(0.9) [2, 6]: 35.3 micron"
"CCN(C(=O)c1c(O)c2c(Cl)cccc2n(C)c1=O)c1ccccc1 [Laquinimod, N-ethyl-N-phenyl-1,2,-dihydro-4-hydroxy-5-chloro-1-methyl-2-oxoquinoline-3-carboxamide]",,,,,,Efficacy in the aEAE model [4]: effective
CCN(C(=O)c1c([O-])c2c(Cl)cccc2n(C)c1=O)c1ccccc1.[Na+] [Recrystallized product (Example 14)],3.5,15.7,43.2,0.429,0.224,
CCN(C(=O)c1c([O-])c2c(Cl)cccc2n(C)c1=O)c1ccccc1.[Na+] [Recrystallized product (Example 15)],6.1,21.2,51.8,,,
CCN(C(=O)c1c(O)c2c(Cl)cccc2n(C)c1=O)c1ccccc1 [laquinimod sodium],,,,,,Solubility in acetone ([5]; acetone): practically insoluble; Solubility in ethanol ([5]; ethanol): slightly soluble; Solubility in isopropanol ([5]; isopropanol): very slightly soluble

# Continued, in another order:
"Particle size distribution by Malvern, d(0.1) [2] [micron]","Particle size distribution by Malvern, d(0.5) [2] [micron]","Particle size distribution by Malvern, d(0.9) [2] [micron]","Powder density, TD (tapped density) [3] [g/ml]","Powder density, BD (bulk density) [3] [g/ml]",Structure (SMILES),other results
1.5,7.1,23.2,0.347,0.166,CCN(C(=O)c1c([O-])c2c(Cl)cccc2n(C)c1=O)c1ccccc1.[Na+] [Laquinimod Sodium prepared according to Example 1 (batch A)],
1.3,5.9,19.4,0.362,0.158,CCN(C(=O)c1c([O-])c2c(Cl)cccc2n(C)c1=O)c1ccccc1.[Na+] [Laquinimod Sodium prepared according to Example 1 (batch C)],
13.3,51.1,105.1,0.758,0.498,CCN(C(=O)c1c([O-])c2c(Cl)cccc2n(C)c1=O)c1ccccc1.[Na+] [Re-acrystallized product],
15.7,65.5,156.4,,,CCN(C(=O)c1c([O-])c2c(Cl)cccc2n(C)c1=O)c1ccccc1.[Na+] [Recrystallized product (Example 16)],
